# Test results reported in US4076814A, “Preventive and curative compositions against mycoplasmosis” (Sankyo Company Limited, priority 1975, dated 1978).
# What was measured:
# Type in all cases: cell-based
# Mycoplasma gallisepticum = test: Antimicrobial test, conventional agar plate dilution method, Mycoplasma gallisepticum; details: for MIC: Mycoplasmoides gallisepticum, read-out: Minimum Inhibitory Concentration, Mycoplasma gallisepticum
# Excerpt: (§1) ANTIMICROBIAL TEST AGAINST THREE STRAINS OF MYCOPLASMA
# (§2) The test was effected by a conventional agar plate dilution method using the indicated strains of mycoplasma. The dithiocarbamic acid derivatives as shown below with Compound Nos. were employed in the test.
# Mycoplasma pulmonis = test: Antimicrobial test, conventional agar plate dilution method, Mycoplasma pulmonis; details: for MIC: Mycoplasma, read-out: Minimum Inhibitory Concentration, Mycoplasma pulmonis
# Excerpt: as §1, §2
# Mycoplasma hyorhinis = test: Antimicrobial test, conventional agar plate dilution method, Mycoplasma hyorhinis; details: for MIC: Mycoplasma, read-out: Minimum Inhibitory Concentration, Mycoplasma hyorhinis
# Excerpt: as §1, §2
SMILES,MIC (Mycoplasma gallisepticum),MIC (Mycoplasma pulmonis),MIC (Mycoplasma hyorhinis),"Minimum Inhibitory Concentration, Mycoplasma gallisepticum (Mycoplasma gallisepticum)","Minimum Inhibitory Concentration, Mycoplasma pulmonis (Mycoplasma pulmonis)","Minimum Inhibitory Concentration, Mycoplasma hyorhinis (Mycoplasma hyorhinis)"
"Cc1cc(CSC(=S)N2CCOCC2)cc(C)c1O [compound 194, 4-Hydroxy-3,5-dimethylbenzyl 4-morpholinecarbodithioate]",1.56 µg/mL,1.56 µg/mL,0.78 µg/mL,–,–,–
"Cc1cc(CSC(=S)N2CCN(C)CC2)cc(C)c1O.Cl [compound 196, 4-Hydroxy-3,5-dimethylbenzyl 4-methyl-1-piperazinecarbodithioate hydrochloride]",1.56 µg/mL,1.56 µg/mL,0.39 µg/mL,–,–,–
"Cc1cc(C)c(O)c(CSC(=S)N(C)C)c1 [compound 197, 2-Hydroxy-3,5-dimethylbenzyl dimethyldithiocarbamate]",0.39 µg/mL,0.39 µg/mL,0.2 µg/mL,–,–,–
"CCN(CC)C(=S)SCc1cc(C)cc(C)c1O [compound 198, 2-Hydroxy-3,5-dimethylbenzyl diethyldithiocarbamate]",0.39 µg/mL,0.39 µg/mL,0.2 µg/mL,–,–,–
"CCN(CC)C(=S)SCc1cc(C)cc(C)c1O [compound 199, 2-Hydroxy-3,5-dimethylbenzyl diethyldithiocarbamate]",–,–,–,0.39 µg/mL,0.39 µg/mL,0.39 µg/mL
"Cc1cc(CSC(=S)N2CCCCC2)cc(C(C)(C)C)c1O [compound 207, 4-Hydroxy-3-t-butyl-5-methylbenzyl 1-piperidinecarbodithioate]",0.1 µg/mL,0.1 µg/mL,0.1 µg/mL,–,–,–
"CC(C)c1cc(CSC(=S)N2CCOCC2)cc(C(C)C)c1O [compound 210, 4-Hydroxy-3,5-di-isopropylbenzyl 4-morpholinecarbodithioate]",0.39 µg/mL,0.39 µg/mL,0.39 µg/mL,–,–,–
"CN(C)C(=S)SCc1cc(C(C)(C)C)c(O)c(C(C)(C)C)c1 [compound 211, 4-Hydroxy-3,5-di-t-butylbenzyl dimethyldithio carbamate]",0.78 µg/mL,0.78 µg/mL,0.39 µg/mL,–,–,–
"CCN(CC)C(=S)SCc1cc(C(C)(C)C)c(O)c(C(C)(C)C)c1 [compound 212, 4-Hydroxy-3,5-di-t-butylbenzyl diethyldithiocarbamate]",1.56 µg/mL,1.56 µg/mL,1.56 µg/mL,–,–,–
"CC(C)(C)c1cc(CSC(=S)N2CCCCC2)cc(C(C)(C)C)c1O [compound 218, 4-Hydroxy-3,5-di-t-butylbenzyl 1-piperidinecarbodithioate]",0.78 µg/mL,0.39 µg/mL,0.39 µg/mL,–,–,–
"CC(C)(C)c1cc(CSC(=S)N2CCOCC2)cc(C(C)(C)C)c1O [compound 219, 4-Hydroxy-3,5-di-t-butylbenzyl 4-morpholinecarbodithioate]",0.2 µg/mL,0.2 µg/mL,0.1 µg/mL,–,–,–
"CC(C)(C)c1cc(CSC(=S)N2CCCCCC2)cc(C(C)(C)C)c1O [compound 220, 4-Hydroxy-3,5-di-t-butylbenzyl 1-hexamethyleneiminecarbodithioate]",0.78 µg/mL,0.78 µg/mL,0.78 µg/mL,–,–,–
"CC(C)(C)c1cc(C(SC(=S)N2CCCCC2)c2ccccc2)cc(C(C)(C)C)c1O (stereo not drawn) [compound 225, 4-Hydroxy-3,5-di-t-butyl-α-phenylbenzyl 1-piperidinecarbodithioate]",0.39 µg/mL,0.2 µg/mL,0.39 µg/mL,–,–,–
"COc1cc(CSC(=S)N2CCCCC2)cc(OC)c1O [compound 229, 4-Hydroxy-3,5-dimethoxybenzyl 1-piperidinecarbodithioate]",0.39 µg/mL,0.39 µg/mL,0.39 µg/mL,–,–,–

# Continued, in another order:
MIC (Mycoplasma gallisepticum),MIC (Mycoplasma pulmonis),MIC (Mycoplasma hyorhinis),SMILES,"Minimum Inhibitory Concentration, Mycoplasma gallisepticum (Mycoplasma gallisepticum)","Minimum Inhibitory Concentration, Mycoplasma pulmonis (Mycoplasma pulmonis)","Minimum Inhibitory Concentration, Mycoplasma hyorhinis (Mycoplasma hyorhinis)"
1.56 µg/mL,1.56 µg/mL,0.78 µg/mL,"COc1cc(CSC(=S)N2CCOCC2)cc(OC)c1O [compound 230, 4-Hydroxy-3,5-dimethoxybenzyl 4-morpholinecarbodithioate]",–,–,–
0.39 µg/mL,0.39 µg/mL,0.2 µg/mL,"CN(C)C(=S)SCc1cc(Cl)c(O)c(Cl)c1 [compound 232, 4-Hydroxy-3,5-dichlorobenzyl dimethyldithiocarbamate]",–,–,–
3.13 µg/mL,3.13 µg/mL,1.56 µg/mL,"Oc1c(Cl)cc(CSC(=S)N2CCCCC2)cc1Cl [compound 234, 4-Hydroxy-3,5-dichlorobenzyl 1-piperidinecarbodithioate]",–,–,–
1.56 µg/mL,1.56 µg/mL,1.56 µg/mL,"Oc1c(Cl)cc(CSC(=S)N2CCOCC2)cc1Cl [compound 235, 4-Hydroxy-3,5-dichlorobenzyl 4-morpholinecarbodithioate]",–,–,–
0.2 µg/mL,0.2 µg/mL,0.2 µg/mL,"Cc1cc(CSC(=S)N(C)C)cc(CN(C)C)c1O [compound 236, 4-Hydroxy-3-dimethylaminomethyl-5-methylbenzyl dimethyldithiocarbamate]",–,–,–
0.2 µg/mL,0.2 µg/mL,0.2 µg/mL,"CCCc1cc(CSC(=S)N(C)C)cc(CN(C)C)c1O.Cl [compound 238, 4-Hydroxy-3-dimethylaminomethyl5-n-propylbenzyl dimethyldithiocarbamate hydrochloride]",–,–,–
0.39 µg/mL,0.39 µg/mL,0.2 µg/mL,"CCC(C)c1cc(CSC(=S)N(C)C)cc(CN(C)C)c1O.Cl (stereo not drawn) [compound 240, 4-Hydroxy-3-dimethylaminomethyl-5-sec-butylbenzyl dimethyldithiocarbamate hydrochloride]",–,–,–
0.78 µg/mL,0.39 µg/mL,0.39 µg/mL,"CCN(CC)C(=S)SCc1cc(CN(C)C)c(O)c(C(C)(C)C)c1 [compound 241, 4-Hydroxy-3-dimethylaminomethyl-5-t-butylbenzyl diethyldithiocarbamate]",–,–,–
0.1 µg/mL,0.1 µg/mL,0.1 µg/mL,"CCN(CC)C(=S)SCc1cc(CO)cc(OC)c1O [compound 242, 2-Hydroxy-3-methoxy-5-hydroxymethylbenzyl diethyldithiocarbamate]",–,–,–
0.39 µg/mL,0.2 µg/mL,0.39 µg/mL,"CC=Cc1cc(CSC(=S)N(CC)CC)c(O)c(OC)c1 [compound 246, 2-Hydroxy-3-methoxy-5-propenylbenzyl diethyldithiocarbamate]",–,–,–
0.78 µg/mL,0.78 µg/mL,0.39 µg/mL,"Cc1cc(O)c(CSC(=S)N(C)C)cc1CSC(=S)N(C)C [compound 247, 4-Hydroxy-5-dimethylthiocarbamoylthiomethyl-2-methylbenzyl dimethyldithiocarbamate]",–,–,–
0.1 µg/mL,0.1 µg/mL,0.2 µg/mL,"CCCc1cc(CSC(=S)N(C)C)cc(CSC(=S)N(C)C)c1O [compound 248, 4-Hydroxy-5-dimethylthiocarbamoylthiomethyl-3-n-propylbenzyl dimethyldithiocarbamate]",–,–,–
0.2 µg/mL,0.2 µg/mL,0.2 µg/mL,"CCC(C)c1cc(CSC(=S)N(C)C)cc(CSC(=S)N(C)C)c1O (stereo not drawn) [compound 250, 4-Hydroxy-5-dimethylthiocarbamoylthiomethyl-3-sec-butylbenzyl dimethyldithiocarbamate]",–,–,–
0.2 µg/mL,0.1 µg/mL,0.2 µg/mL,"CN(C)C(=S)SCc1cc(CSC(=S)N(C)C)c(O)c(C(C)(C)C)c1 [compound 251, 2-Hydroxy-5-dimethylthiocarbamoylthiomethyl-3-t-butylbenzyl dimethyldithiocarbamate]",–,–,–
0.39 µg/mL,0.39 µg/mL,0.39 µg/mL,"CN(C)C(=S)SCc1oc(CO)cc(=O)c1O [compound 254, 5-Hydroxy-2-hydroxymethyl-4-oxo-4H-pyran-6-ylmethyl dimethyldithiocarbamate]",–,–,–
